Non-standard residues stand in square brackets, D forms with d. Residues, ends and D or L forms follow the SMILES beside them. *: point of attachment. boroGlu = O=C(O)CC[C@H](N*)B(O)O; Gly(cPr) = N[C@H](C(=O)O)C1CC1
Biological target: His6-CylA-27-412 (Enterococcus faecalis, UniProt A0A2P6AWB8)
Experiment: In vitro co-operative pore formation assay (pyranine-encapsulated DOPC liposomes, mCylLS:mCylLL)
Assay type: biochemical
Text: In vitro pore formation assay for determining inhibitor effectiveness with high sensitivity. The assay uses pore formation as an indicator of toxin maturation. […] Pore formation dissipates a pH gradient between the interior of the liposome and the surrounding buffer increasing pyranine fluorescence.
Within the liposomes was a buffer of lower pH (6.0), and therefore any pore formation or membrane disruption would result in an increase in internal pH, which increases the fluorescence signal of the pyranine. In this way, pyranine fluorescence can be correlated to toxin activation allowing for the determination of EC50 values.
To a well in a black 96-well plate (200 μL) was added 90 μL high pH buffer (5 mM MES, 5 mM Tricine, 5 mM NaCl, pH 7.4) containing CylA (4 nM final concentration). After adding inhibitor, the mixture was incubated at room temperature for 10 min then freshly prepared (no more than 2 days old) pyranine encapsulated DOPC liposomes were added such that the total DOPC concentration was 80 μM. […] The resulting curves were max-min normalized yielding the fraction of permeabilized liposomes. […] This experiment was performed in duplicate or triplicate for each inhibitor at each concentration. […] Errors presented are those calculated by Origin 7 during the fitting process.

Sequence of His6-CylA-27-412 (A0A2P6AWB8 entry or part of it): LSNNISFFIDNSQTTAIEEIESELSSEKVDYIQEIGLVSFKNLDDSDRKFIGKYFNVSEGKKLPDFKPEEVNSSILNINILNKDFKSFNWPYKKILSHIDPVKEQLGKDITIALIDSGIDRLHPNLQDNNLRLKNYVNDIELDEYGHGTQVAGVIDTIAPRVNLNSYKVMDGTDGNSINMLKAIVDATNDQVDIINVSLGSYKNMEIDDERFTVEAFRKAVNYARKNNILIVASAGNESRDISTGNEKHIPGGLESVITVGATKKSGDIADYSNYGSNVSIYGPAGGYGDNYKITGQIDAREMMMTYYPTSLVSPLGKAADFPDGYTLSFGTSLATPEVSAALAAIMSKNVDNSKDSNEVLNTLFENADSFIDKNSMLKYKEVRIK

CC(=O)NCC(=O)N[C@@H](CC(=O)O)C(=O)N[C@H](C(=O)N[C@@H](CCC(N)=O)C(=O)N[C@@H](C)C(=O)N[C@@H](CCC(=O)O)B(O)O)C1CC1 [Compound 9, Ac-Gly-Asp-Cpg-Gln-Ala-Glu-BA] (Ac-GD[Gly(cPr)]QA-boroGlu)
EC50: 12.5 ± 1.4 nM

Source: patent publication US20260337253A1, “INHIBITION OF GUT BACTERIA” (priority 2025, published 2026)
